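The compound was tested at five concentrations on cells cultured in 96-well plates, with a 48-hour exposure period. GI50 is the concentration that inhibits growth by half.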 The source made the active and inactive calls. Rule as the data show it: active = GI50 up to about 1.1 µM and inactive = higher.
Tests used:
Assay in all cases: NCI-60 cell line screen, 48 h
[1] = system: A549
[2] = system: OVCAR-4
[3] = system: OVCAR-3
[4] = system: CAKI-1
[5] = system: CCRF-CEM
[6] = system: SF-295
[7] = system: HCT-15
[8] = system: U-251
[9] = system: Malme-3M
[10] = system: TK-10
[11] = system: SNB-75
[12] = system: HL-60
[13] = system: UACC-257
[14] = system: SNB-19
[15] = system: 786-0
[16] = system: A498
[17] = system: SR

SMILES	GI50 [1]	GI50 [2]	GI50 [3]	GI50 [4]	GI50 [5]	GI50 [6]	GI50 [7] [µM]	GI50 [8]	GI50 [9]	GI50 [10]	GI50 [11]	GI50 [12]	GI50 [13]	GI50 [14]	GI50 [15]	GI50 [16]	GI50 [17]
COc1ccc(C2C(C(=O)O)=C(CO)Oc3cc4c(cc32)OCO4)c(OC)c1 (configuration not stated)	70.3 µM (inactive)	78 µM (inactive)	57.5 µM (inactive)	88.1 µM (inactive)	31 µM (inactive)	62.7 µM (inactive)	67.9	81.1 µM (inactive)	> 100 µM (inactive)	> 100 µM (inactive)	> 100 µM (inactive)	> 100 µM (inactive)	> 100 µM (inactive)	70.5 µM (inactive)	> 100 µM (inactive)		
Cc1cccc(-n2c(N)c(-c3nc4ccccc4[nH]3)sc2=S)c1	28.2 µM (inactive)	43.4 µM (inactive)	25 µM (inactive)	47.4 µM (inactive)	32.2 µM (inactive)	28.1 µM (inactive)	20.7	21.8 µM (inactive)	28.8 µM (inactive)	29.5 µM (inactive)	50 µM (inactive)	26.5 µM (inactive)	28.6 µM (inactive)	36.6 µM (inactive)	24.4 µM (inactive)	89.3 µM (inactive)	
CC12CC(=O)NN=C1c1ccccc1C2 (configuration not stated)	> 100 µM (inactive)		> 100 µM (inactive)	> 100 µM (inactive)	> 100 µM (inactive)	> 100 µM (inactive)	> 100	> 100 µM (inactive)	> 100 µM (inactive)	> 100 µM (inactive)	> 100 µM (inactive)	> 100 µM (inactive)	> 100 µM (inactive)	> 100 µM (inactive)	> 100 µM (inactive)	> 100 µM (inactive)	
Cc1cc2nc3c(=O)[nH]c(=O)nc-3n(CC(O)C(O)C(O)CO)c2cc1N (configuration not stated)	> 100 µM (inactive)	> 100 µM (inactive)	> 100 µM (inactive)		> 100 µM (inactive)	> 100 µM (inactive)	> 100			> 100 µM (inactive)	> 100 µM (inactive)	> 100 µM (inactive)		> 100 µM (inactive)	> 100 µM (inactive)	> 100 µM (inactive)	
CC1OC(OC2C(CO)OC(O[C@H]3CC[C@@]4(C)C(=CC[C@H]5[C@@H]6C[C@@H]7O[C@]8(CC[C@@H](C)CN8)[C@@H](C)[C@@H]7[C@@]6(C)CC[C@@H]54)C3)C(O)C2O)C(O)C(O)C1O (some centres not stated)	> 100 µM (inactive)	> 100 µM (inactive)	> 100 µM (inactive)	> 100 µM (inactive)	> 100 µM (inactive)	> 100 µM (inactive)	> 100	> 100 µM (inactive)	> 100 µM (inactive)	> 100 µM (inactive)	42.1 µM (inactive)	> 100 µM (inactive)	> 100 µM (inactive)	> 100 µM (inactive)	> 100 µM (inactive)	> 100 µM (inactive)	
COc1ccc(NC(=O)/C(=C/c2ccccc2)C(C)=O)cc1	22.2 µM (inactive)	11.6 µM (inactive)	16.3 µM (inactive)	15.4 µM (inactive)	6.12 µM (inactive)	14.2 µM (inactive)	13.2	15.2 µM (inactive)	16.5 µM (inactive)	20.3 µM (inactive)	7.11 µM (inactive)	3.39 µM (inactive)	13.3 µM (inactive)	16.2 µM (inactive)	14.8 µM (inactive)	21.1 µM (inactive)	
O=[N+]([O-])c1ccc(C2=Nn3c(nnc3-c3ccccc3)SC2)o1	35.2 µM (inactive)	19.6 µM (inactive)	17.3 µM (inactive)	19.9 µM (inactive)	3.6 µM (inactive)	17.4 µM (inactive)	16.1	17.4 µM (inactive)	24.1 µM (inactive)	19.6 µM (inactive)	20.4 µM (inactive)	15.3 µM (inactive)	20 µM (inactive)	85.5 µM (inactive)	20.8 µM (inactive)	> 100 µM (inactive)	
COc1cc2cccc(/N=C\c3cccc(OC)c3OC(C)C)c2cc1OC	29.7 µM (inactive)	18.7 µM (inactive)	19.4 µM (inactive)	24 µM (inactive)	21.2 µM (inactive)	19 µM (inactive)		19.7 µM (inactive)	22.3 µM (inactive)	25.6 µM (inactive)	21.7 µM (inactive)		20.8 µM (inactive)		18.5 µM (inactive)	56.9 µM (inactive)	
C=C[Si](C)(C)COC(=O)/C(C#N)=C/C=C/c1ccccc1	> 100 µM (inactive)	> 100 µM (inactive)	34.8 µM (inactive)		32.3 µM (inactive)	> 100 µM (inactive)	78.2	> 100 µM (inactive)	> 100 µM (inactive)		34.6 µM (inactive)	39.2 µM (inactive)	> 100 µM (inactive)	> 100 µM (inactive)	> 100 µM (inactive)		25.2 µM (inactive)
NC(=O)c1c(-c2ccccc2)c(-c2ccccc2)cc2c(=O)c3ccccc3[nH]c12	23.8 µM (inactive)	12.5 µM (inactive)	23.1 µM (inactive)		31.4 µM (inactive)	40.4 µM (inactive)	29.8	31.7 µM (inactive)	17.9 µM (inactive)	18.5 µM (inactive)	23.6 µM (inactive)		40.6 µM (inactive)	21 µM (inactive)	8.53 µM (inactive)	19.4 µM (inactive)	
O=C(O)[C@H](NS(=O)(=O)c1ccc(F)cc1)c1ccccc1	> 100 µM (inactive)	> 100 µM (inactive)	> 100 µM (inactive)	> 100 µM (inactive)	> 100 µM (inactive)	> 100 µM (inactive)	> 100	> 100 µM (inactive)	> 100 µM (inactive)	> 100 µM (inactive)	> 100 µM (inactive)		> 100 µM (inactive)	> 100 µM (inactive)	> 100 µM (inactive)		
N=C(N)NS(=O)(=O)c1ccc(NC(=O)c2cccc3cc4ccccc4nc23)cc1	> 100 µM (inactive)	28 µM (inactive)	> 100 µM (inactive)	> 100 µM (inactive)	6.56 µM (inactive)	> 100 µM (inactive)	> 100	87.7 µM (inactive)	> 100 µM (inactive)	> 100 µM (inactive)	95.1 µM (inactive)		> 100 µM (inactive)	9.79 µM (inactive)	67.9 µM (inactive)	> 100 µM (inactive)	
Cc1nc2ccccc2nc1CC(=O)C(=O)Nc1ccc(Cl)cc1Cl	> 100 µM (inactive)	> 100 µM (inactive)	> 100 µM (inactive)	> 100 µM (inactive)	> 100 µM (inactive)	> 100 µM (inactive)	> 100	> 100 µM (inactive)	> 100 µM (inactive)	> 100 µM (inactive)	> 100 µM (inactive)	> 100 µM (inactive)	> 100 µM (inactive)	> 100 µM (inactive)	> 100 µM (inactive)	> 100 µM (inactive)	

From ChEMBL document CHEMBL1201862, “PubChem BioAssay data set” (2004)
